The values that follow come from PMC12057046, “Elucidation of short linear motif-based interactions of the MIT and rhodanese domains of the ubiquitin-specific protease 8” (Biology Direct, 2025).

One assay has as its target T1, USP8 Rhod domain (Homo sapiens, UniProt P40818).
T1 construct: USP8 Rhod (174–317) (UniProt: P40818); GST (cleaved yes); made in house; host or cells: Escherichia coli BL21-Gold (DE3)
T1 sequence (P40818 174-317): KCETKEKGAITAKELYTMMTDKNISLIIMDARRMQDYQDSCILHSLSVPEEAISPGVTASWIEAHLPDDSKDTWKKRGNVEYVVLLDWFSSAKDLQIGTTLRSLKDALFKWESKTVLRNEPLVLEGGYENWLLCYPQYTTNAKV
Nature of the assay: Peptide-phage display-based deep mutational scanning (DMS), USP8 Rhod domain. In kind it is binding. The settings on record: ProP-PD pairs, bait USP8_Rhodanese__P40818_174_317; wild-type/mutant pair, wild type KIAA1614 569-584 GMERVLGGLSSPLRLL (wt_00013). As to the method: Four rounds of phage selections were carried out using the second generation human disorderome library or the constructed deep mutational scanning library. At least three individual replicates were used for each bait protein. 10 µg of GST-tagged proteins or GST control (diluted in PBS from the stock of proteins kept in the purification elution buffer) were immobilized in 100 µL PBS on a 96-well MaxiSorp (Nunc) plate overnight at 4 °C. The plates were incubated with blocking buffer (with 0.5% BSA in PBS) for 1 h at 4 °C followed by washing with 0.05% Tween 20 in PBS four times. The naïve phage library (10^11 CFU) was diluted in 1/5th volume PEG/NaCl (20% PEG-8000, 0.4 M NaCl) and 1X PBS, incubated on ice for 10 min and centrifuged at 10,000 [drawing 3] g for 10 min. The pellet was resuspended in the volume of PBS (100 µL/ well). The GST-coated control plate was incubated with 100 µL library per well in PBS for 1 h at 4 °C to remove non-specific binders. The supernatant was transferred to the target wells and incubated for 2 h at 4 °C. The wells were washed five times with 0.05% Tween 20 in PBS and the bound phages were eluted with 100 µL per well log-phase E. coli OmniMAX by incubating at 37° C while shaking. After 30 min, M13KO7 helper phages were added and incubated for an additional 45 min. The bacterial cultures were transferred to 1 mL 2YT supplemented with 100 µg/mL carbenicillin, 30 µg/mL kanamycin and 0.3 mM IPTG and grew overnight at 37 °C while shaking. The following day the cultures were centrifuged for 10 min at 2,000 [drawing 4] g, 4 °C. 1/10th volume of 10 [drawing 5] PBS was added to adjust the pH and heated at 65 °C for 10 min. The phage pools from each round were used as in-phages for the next round of selections.
The samples were prepared for NGS as previously described. […] The PCR products were normalized with 25 µL Mag-bind Total Pure NGS beads (Omega Biotek) and 10 µL of each eluted sample (Qiagen Elution Buffer) was pooled and cleaned-up with a PCR purification kit (Qiagen). The PCR product was confirmed by 2% agarose electrophoresis and the band was extracted with QIAquick Gel extraction Kit (Qiagen) and eluted with 30 µL TE buffer. The dsDNA was quantified using QuantiT PicoGreen dsDNA Assay Kit (Thermo Fisher) and sent for NGS (Illumina MiSeq v3, 1 × 150 bp read setup, 20% PhiX, NGI SciLifeLab facility, Sweden). The NGS data were demultiplexed, adapter regions were trimmed and sequences with an average quality of at least 20 were translated to peptide sequences. The NGS data were analysed using custom Python scripts. The total read NGS counts for each selection experiment of each peptide sequence were compiled and annotated in PepTools (https://slim.icr.ac.uk/tools/peptools/). Since ProP-PD is in essence a competition assay, the possibility of the input phage library influencing the selection outcome was explored. […] Pearson correlation coefficient and p-value were calculated using Python’s SciPy library.
GLERVLGGLSSPLRLL displayed a hit_pair_ratio of 1.84. On the same count and under the same terms, to GMARVLGGLSSPLRLL belongs 8.89. As for GMDRVLGGLSSPLRLL, the hit_pair_ratio is recorded as -1.75.

The sequence GMEAVLGGLSSPLRLL registered a hit_pair_ratio of 131.67.

The assay is the same for the next values; noted with them: bait USP8_Rhodanese__P40818_174_317; wild-type/mutant pair ratio of averaged fractions; negative values where mutant fraction is higher.
Take GLALWEAKMKQLAMRA: the hit_pair_ratio was 7.80.

For the sequence GLALWEAKMKQLANRA, the hit_pair_ratio was 73.80.

Regarding GLALWEAKMKQLAQRA, the hit_pair_ratio was found to be 119.01.

On to GLALWEAKMKQLASRA, for which the hit_pair_ratio is 65.49. Same read-out and setting: under GLALWEAKMKQLATRA stands 553.50.

As to GLALWEAKMKQLAVRA, the hit_pair_ratio is given as 20.13. Turning to GLALWEAKMKQLAWRA, the hit_pair_ratio was 1107.01.

As for GLALWEAKMKQLAYRA, the hit_pair_ratio is 208.81. The same measure, in the same setting: under GLALWEAKMKQLDERA stands 184.50; under GLALWEAKMKQLEERA, -19.29. The same measure, in the same setting: to GLALWEAKMKQLGERA belongs -3.00; to GLALWEAKMKQLHERA, 1.77. Consider GLALWEAKMKQLIERA, for which the hit_pair_ratio is listed as 369.00. Same read-out and setting: under GLALWEAKMKQLKERA stands 184.50; under GLALWEAKMKQLLERA, 31.22. Take GLALWEAKMKQLMERA: the hit_pair_ratio is on record as 81.38.

For GLALWEAKMKQLNERA, the hit_pair_ratio turned out to be 17.57.

Consider GLALWEAKMKQLPERA, for which the hit_pair_ratio is on record as 87.51. Still for that read-out and setting: under GLALWEAKMKQLQERA stands 2.19.

With GLALWEAKMKQLTERA, the hit_pair_ratio is reported as 133.35.

In the case of GLALWEAKMKQLVERA, the hit_pair_ratio is -3.40. The same measure, in the same setting: to GLALWEAKMKQLYERA belongs 195.90.

For the sequence GLALWEAKMKQMAERA, the hit_pair_ratio stood at 1107.01. On the same count and under the same terms, to GLALWEAKMKQRAERA belongs 417.62; to GLALWEAKMKQSAERA, 1107.01; to GLALWEAKMKRLAERA, 29.55. For the sequence GLALWEAKMKSLAERA, the hit_pair_ratio is listed as 1.39.

Turning to GLALWEAKMKTLAERA, the hit_pair_ratio is on record as 33.74. Take GLALWEAKMKVLAERA: the hit_pair_ratio worked out at 553.50. The same measure, in the same setting: to GLALWEAKMKWLAERA belongs 221.40; to GLALWEAKMKYLAERA, 55.35; to GLALWEAKMLQLAERA, 26.20. The same measure, in the same setting: to GLALWEAKMMQLAERA belongs 417.62; to GLALWEAKMPQLAERA, 553.50. Turning to GLALWEAKMQQLAERA, the hit_pair_ratio came out at 31.63.

Turning to GLALWEAKMRQLAERA, the hit_pair_ratio was found to be 1.94.

For GLALWEAKMSQLAERA, the hit_pair_ratio is recorded as -7.21.

In the case of GLALWEAKMTQLAERA, the hit_pair_ratio amounted to 29.92. On the same count and under the same terms, to GLALWEAKMVQLAERA belongs -1.44; to GLALWEAKMWQLAERA, 2.24; to GLALWEAKMYQLAERA, 31.05.

Staying with this assay, now noted: wild type/mutant pair; bait USP8_Rhodanese__P40818_174_317; vs hit_library_peptide_wt GLALWEAKMKQLAERA; negative where mutant fraction exceeds wild type; ProP-PD pairs (sheet S7.B).
On to GLALWEAKMNQLAERA, for which the hit_pair_ratio is -19.47.

As for GLALWEAKNKQLAERA, the hit_pair_ratio was 276.75.

For the sequence GLALWEAKPKQLAERA, the hit_pair_ratio came out at 195.90. With GLALWEAKQKQLAERA, the hit_pair_ratio was 151.61. As for GLALWEAKRKQLAERA, the hit_pair_ratio was determined as 44.28.

As for GLALWEAKSKQLAERA, the hit_pair_ratio is -2.49. Still for that read-out and setting: to GLALWEAKTKQLAERA belongs 26.45; to GLALWEAKVKQLAERA, 369.00. As to GLALWEAKWKQLAERA, the hit_pair_ratio is on record as 2.15.

On to GLALWEAKYKQLAERA, for which the hit_pair_ratio is 123.00.

As for GLALWEANMKQLAERA, the hit_pair_ratio came to 208.81. Consider GLALWEAPMKQLAERA, for which the hit_pair_ratio is reported as 276.75. GLALWEAQMKQLAERA showed a hit_pair_ratio of 1107.01.

GLALWEEKMKQLAERA: the hit_pair_ratio is reported as 553.50.

For the sequence GLALWEFKMKQLAERA, the hit_pair_ratio worked out at 1107.01. GLALWEGKMKQLAERA: the hit_pair_ratio amounted to 68.11. Still for that read-out and setting: to GLALWEHKMKQLAERA belongs 2.05; to GLALWEIKMKQLAERA, 123.00; to GLALWELKMKQLAERA, 1107.01.

GLALWEMKMKQLAERA came in with a hit_pair_ratio of 20.50.

Regarding GLALWENKMKQLAERA, the hit_pair_ratio amounted to 24.65. Same read-out and setting: to GLALWEPKMKQLAERA belongs 87.84; to GLALWEQKMKQLAERA, -1.30. The sequence GLALWERKMKQLAERA showed a hit_pair_ratio of 1107.01.

GLALWESKMKQLAERA came in with a hit_pair_ratio of 208.81.

As to GLALWETKMKQLAERA, the hit_pair_ratio came out at 11.88. As to GLALWEVKMKQLAERA, the hit_pair_ratio is given as 92.62. On the same count and under the same terms, under GLALWEWKMKQLAERA stands 23.98; under GLALWEYKMKQLAERA, 208.81. On the same count and under the same terms, under GLALWFAKMKQLAERA stands 553.50. On the same count and under the same terms, to GLALWGAKMKQLAERA belongs 24.44; to GLALWHAKMKQLAERA, 123.00; to GLALWSAKMKQLAERA, 21.71. On to GLALWVAKMKQLAERA, for which the hit_pair_ratio is listed as 417.62. GLALWYAKMKQLAERA returned a hit_pair_ratio of 417.62.

GLAMWEAKMKQLAERA yielded a hit_pair_ratio of -5.97. On the same count and under the same terms, under GLANWEAKMKQLAERA stands 4.24; under GLAPWEAKMKQLAERA, 1107.01; under GLAQWEAKMKQLAERA, 10.90. On the same count and under the same terms, to GLARWEAKMKQLAERA belongs 12.82; to GLASWEAKMKQLAERA, 101.08; to GLATWEAKMKQLAERA, 8.05. GLAVWEAKMKQLAERA came in with a hit_pair_ratio of -2.03.

Consider GLDLWEAKMKQLAERA, for which the hit_pair_ratio is recorded as -4.35. The same measure, in the same setting: to GLELWEAKMKQLAERA belongs -13.35; to GLFLWEAKMKQLAERA, 1107.01.

The sequence GLGLWEAKMKQLAERA had a hit_pair_ratio of 123.66. The same measure, in the same setting: under GLHLWEAKMKQLAERA stands 553.50; under GLILWEAKMKQLAERA, 1107.01.

GLKLWEAKMKQLAERA: the hit_pair_ratio came to 369.00. Still for that read-out and setting: under GLLLWEAKMKQLAERA stands 1107.01. Still for that read-out and setting: under GLMLWEAKMKQLAERA stands 20.89; under GLPLWEAKMKQLAERA, 10.62; under GLQLWEAKMKQLAERA, -1.71. The same measure, in the same setting: to GLSLWEAKMKQLAERA belongs 33.04; to GLTLWEAKMKQLAERA, 92.62; to GLVLWEAKMKQLAERA, 27.71. In the case of GLWLWEAKMKQLAERA, the hit_pair_ratio came out at 49.74. On the same count and under the same terms, under GLYLWEAKMKQLAERA stands 27.03. On the same count and under the same terms, to GMALWEAKMKQLAERA belongs 7.96.
